{"source": "paper PMC10052025", "about": "(Pharmaceutics, 2023)", "key": {"OATP1B1/3": {"system": "OATP1B1/3", "settings": "humans, cited from earlier work"}, "OATP1B1 [1]": {"biological_target": "T1, OATP1B1 (Homo sapiens, UniProt Q9Y6L6)", "T1 sequence (Q9Y6L6 1-691)": "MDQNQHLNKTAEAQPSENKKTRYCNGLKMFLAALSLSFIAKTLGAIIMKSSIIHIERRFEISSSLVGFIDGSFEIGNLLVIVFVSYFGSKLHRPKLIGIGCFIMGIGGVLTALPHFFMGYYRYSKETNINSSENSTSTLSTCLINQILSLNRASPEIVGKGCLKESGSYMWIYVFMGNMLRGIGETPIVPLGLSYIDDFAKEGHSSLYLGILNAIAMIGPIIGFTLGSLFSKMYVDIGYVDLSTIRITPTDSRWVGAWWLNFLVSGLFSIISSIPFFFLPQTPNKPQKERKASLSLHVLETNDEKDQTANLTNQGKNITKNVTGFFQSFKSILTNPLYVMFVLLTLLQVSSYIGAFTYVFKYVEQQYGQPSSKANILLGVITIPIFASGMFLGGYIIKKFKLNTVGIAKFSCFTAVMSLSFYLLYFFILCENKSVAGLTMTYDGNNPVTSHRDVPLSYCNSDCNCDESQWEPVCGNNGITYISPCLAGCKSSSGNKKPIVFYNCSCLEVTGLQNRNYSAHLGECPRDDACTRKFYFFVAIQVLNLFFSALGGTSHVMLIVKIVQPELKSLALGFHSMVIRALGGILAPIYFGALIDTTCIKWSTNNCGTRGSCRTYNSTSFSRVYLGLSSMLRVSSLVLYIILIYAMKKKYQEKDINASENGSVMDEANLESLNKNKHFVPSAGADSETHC", "parameters": "FLAG; expressed in transfected cells", "settings": "cited from earlier work"}, "[2]": {"assay": "Nicardipine pharmacokinetic parameters for R-value determination", "settings": "Estimated based on Equation (3)", "procedure": "The fa is the fraction absorbed. […] Fg is the fraction that escaped gut metabolism (Fg). The ka is the absorption rate constant. […] Qh is the hepatic blood flow rate (1500 mL/min) [32]. RB is the blood-to-plasma concentration ratio. […] RB of 0.63 was used as a worst-case scenario."}, "[3]": {"assay": "Maximum aqueous soluble concentration", "format": "physicochemical", "settings": "aqueous solution (not further specified)"}, "OATP1B1 [4]": {"biological_target": "T1, OATP1B1", "assay": "cell-based", "settings": "for OATP1B1-mediated transport after preincubation: washed, substrate without inhibitor; for IC50: [3H]-E217βG 1 µM, 2 min", "experimental": "(§1) HEK293 stable cell lines expressing FLAG-tagged OATP1B1 (HEK293-FLAG-OATP1B1) or FLAG-tagged OATP1B3 (HEK293-FLAG-OATP1B3) have been published previously. Both HEK293 stable cell lines were cultured in DMEM culture media supplemented with 9% FBS (abbreviated as FBS–DMEM), antibiotic antimycotic, and 600 µg/mL G418 as published previously.\n(§2) HEK293-FLAG-OATP1B1 and HEK293-FLAG-OATP1B3 cells (less than 40 passages) were seeded in poly-L-lysine coated 24-well plates at a density of 1.5 × 10^5 cells per well and allowed to grow for 48 h until confluent before the transport studies. [^3H]-E217βG (1 µM, 2 min) and [^3H]-CCK-8 (1 µM, 3 min) were used as substrates for OATP1B1 and OATP1B3 in HEK293-FLAG-OATP1B1 and HEK293-FLAG-OATP1B3 cells, respectively. […] After preincubation, cells were washed three times with HBSS buffer and incubated with HBSS buffer containing substrate, in the […] of vehicle control or inhibitor. […] At the end of substrate incubation, cells were washed three times with ice-cold HBSS buffer and lysed in PBS containing 0.5% Triton X-100. Liquid scintillation counting was determined and normalized to the protein concentration, after correcting for any nonspecific binding in the poly-L-lysine-coated blank plates, as published previously.\n(§3) (1) E=Bottom+Top−Bottom/(1+C/IC50) where E is the remaining substrate transport at a given inhibitor concentration (C)."}, "[5]": {"settings": "human plasma; cited from earlier work"}, "[6]": {"settings": "steady state, read-out: Cmax, plasma, cited from earlier work"}, "OATP1B3 [7]": {"biological_target": "T2, OATP1B3 (Homo sapiens, UniProt Q9NPD5)", "T2 sequence (Q9NPD5 1-702)": "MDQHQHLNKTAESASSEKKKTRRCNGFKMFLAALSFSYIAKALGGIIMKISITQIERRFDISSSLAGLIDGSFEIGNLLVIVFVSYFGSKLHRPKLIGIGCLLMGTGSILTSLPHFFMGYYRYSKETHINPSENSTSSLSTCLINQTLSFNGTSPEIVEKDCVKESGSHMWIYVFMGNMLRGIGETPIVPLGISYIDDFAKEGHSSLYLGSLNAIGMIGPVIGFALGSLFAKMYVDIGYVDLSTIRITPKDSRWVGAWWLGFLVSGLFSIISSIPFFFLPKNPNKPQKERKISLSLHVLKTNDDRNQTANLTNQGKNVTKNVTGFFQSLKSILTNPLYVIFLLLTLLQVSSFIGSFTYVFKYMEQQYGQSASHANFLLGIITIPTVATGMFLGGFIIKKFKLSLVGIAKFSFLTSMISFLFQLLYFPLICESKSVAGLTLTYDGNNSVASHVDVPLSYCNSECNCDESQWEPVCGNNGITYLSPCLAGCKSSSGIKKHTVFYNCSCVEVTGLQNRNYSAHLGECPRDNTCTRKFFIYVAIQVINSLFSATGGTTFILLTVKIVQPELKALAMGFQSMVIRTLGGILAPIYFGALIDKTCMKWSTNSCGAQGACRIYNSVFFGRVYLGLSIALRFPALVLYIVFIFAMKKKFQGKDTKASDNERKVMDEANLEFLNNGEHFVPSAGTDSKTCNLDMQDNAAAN", "assay": "Prediction of OATP1B3-mediated DDI using the static R-value model", "parameters": "FLAG; expressed in transfected cells", "settings": "predicted AUC ratio", "experimental": "(§4) The R-value, which represents the predicted AUC ratio of the substrate drug in the presence versus absence of an inhibitor drug, was calculated based on Equation (2), following the US-FDA final guidance with the parameters summarized in Table 1.\n(§5) The fa is the fraction absorbed. […] Fg is the fraction that escaped gut metabolism (Fg). The ka is the absorption rate constant. […] Qh is the hepatic blood flow rate (1500 mL/min). RB is the blood-to-plasma concentration ratio. […] (3) Iin,max=Imax+faFg×ka×Dose/Qh×RB"}, "OATP1B1 [8]": {"biological_target": "T1, OATP1B1", "assay": "Prediction of OATP1B1-mediated DDI using the static R-value model", "parameters": "FLAG; expressed in transfected cells", "settings": "predicted AUC ratio", "experimental": "as §4, §5"}, "OATP1B3 [9]": {"biological_target": "T2, OATP1B3", "experimental": "as §1, §2, §3"}, "[10]": {"system": "OATP1B1 c. 521CC genotype", "settings": "subjects with OATP1B1 c. 521CC genotype; cited from earlier work"}, "[11]": {"settings": "from co-incubation IC50, FBS-DMEM"}, "[12]": {"settings": "from pre + co-incubation IC50, HBSS"}, "[13]": {"settings": "from pre + co-incubation IC50, FBS-DMEM"}}, "note": "Where two headings read alike, the source gives them in different places.", "data": [{"compound": "COCC(=O)O[C@]1(CCN(C)CCCc2nc3ccccc3[nH]2)CCc2cc(F)ccc2[C@@H]1C(C)C", "note": "[Mibefradil, mibefradil]", "values": [{"measurement": "AUC Ratio", "setting": "OATP1B1/3; AUC of atorvastatin on coadministration, ref 10 in text, ref 8 in Table 3", "value": 4.43}, {"measurement": "AUC Ratio", "setting": "OATP1B1/3; AUC of pravastatin on coadministration of mibefradil", "value": 1.32}]}, {"compound": "COC(=O)C1=C(C)NC(C)=C(C(=O)OCC(C)C)C1c1ccccc1[N+](=O)[O-]", "note": "(stereo not drawn) [Nisoldipine, nisoldipine]", "values": [{"measurement": "AUC Ratio", "setting": "OATP1B1/3; AUC of telmisartan on coadministration", "value": 2.32}]}, {"compound": "CCOC(=O)C1=C(COCCN)NC(C)=C(C(=O)OC)C1c1ccccc1Cl", "note": "(stereo not drawn) [amlodipine]", "values": [{"measurement": "predicted DDI potential based on IC50 values against OATP1B1", "setting": "OATP1B1 [1]; IC50 determined without inhibitor-preincubation step", "value": "no DDI potential"}]}, {"compound": "COC(=O)C1=C(C)NC(C)=C(C(=O)OCCN(C)Cc2ccccc2)C1c1cccc([N+](=O)[O-])c1", "note": "(stereo not drawn) [nicardipine]", "values": [{"measurement": "inhibition of OATP1B1-mediated transport", "setting": "OATP1B1 [1]; 20 µM", "value": 65, "unit": "%"}, {"measurement": "Iin, max (estimated total maximum plasma concentration at the inlet to the liver)", "setting": "[2]", "value": 8.46, "unit": "µM"}, {"measurement": "solubility", "setting": "[3]", "value": 4, "unit": "µM"}, {"measurement": "effect of preincubation on OATP1B1-mediated transport", "setting": "OATP1B1 [4]; 0.5 µM, 10 min preincubation in HBSS buffer", "value": "no effect"}, {"measurement": "OATP1B1-mediated transport after preincubation", "setting": "OATP1B1 [4]; 0.5 µM, 30 min preincubation in HBSS buffer", "value": "0.78 ± 0.04 fold of the control"}, {"measurement": "OATP1B1-mediated transport after preincubation", "setting": "OATP1B1 [4]; 0.5 µM, 1 h preincubation in HBSS buffer", "value": "0.82 ± 0.04 fold of the control"}, {"measurement": "effect of preincubation on OATP1B1-mediated transport", "setting": "OATP1B1 [4]; 0.5 µM, any preincubation duration (10 min–1 h) in FBS-containing medium", "value": "no effect"}, {"measurement": "effect of preincubation on OATP1B1-mediated transport", "setting": "OATP1B1 [4]; 2 and 4 µM, HBSS buffer and FBS-containing medium, all preincubation time points", "value": "significantly reduced"}, {"measurement": "IC50", "setting": "OATP1B1 [4]; IC50, Co-incubation only (no preincubation), FBS-DMEM row", "value": "2800 ± 2440", "unit": "nM"}, {"measurement": "IC50", "setting": "OATP1B1 [4]; IC50, Co-incubation only (no preincubation), HBSS row", "value": "3550 ± 2460", "unit": "nM"}, {"measurement": "IC50", "setting": "OATP1B1 [4]; IC50, Pre + co-incubation, 30 min preincubation in FBS-DMEM (9% FBS)", "value": "1570 ± 1400", "unit": "nM"}, {"measurement": "IC50", "setting": "OATP1B1 [4]; IC50, Pre + co-incubation, 30 min preincubation in protein-free HBSS buffer", "value": "980 ± 260", "unit": "nM"}, {"measurement": "fu (Fraction unbound in the plasma)", "setting": "[5]", "value": "0.05 [29]"}, {"measurement": "Cmax", "setting": "[6]; 20 mg 3 times a day", "value": 70, "unit": "nM"}, {"measurement": "Cmax", "setting": "[6]; 30 mg 3 times a day", "value": 170, "unit": "nM"}, {"measurement": "Cmax", "setting": "[6]; 40 mg 3 times a day", "value": 260, "unit": "nM"}, {"measurement": "R (20 mg)", "setting": "OATP1B3 [7]; [11]", "value": 1.0}, {"measurement": "R (20 mg)", "setting": "OATP1B3 [7]; from co-incubation IC50, HBSS", "value": 1.0}, {"measurement": "R (20 mg)", "setting": "OATP1B3 [7]; [12]", "value": 1.1}, {"measurement": "R (30 mg)", "setting": "OATP1B3 [7]; from co-incubation IC50, HBSS", "value": 1.0}, {"measurement": "R (30 mg)", "setting": "OATP1B3 [7]; [12]", "value": 1.2}, {"measurement": "R (40 mg)", "setting": "OATP1B3 [7]; from co-incubation IC50, HBSS", "value": 1.0}, {"measurement": "R (40 mg)", "setting": "OATP1B3 [7]; [12]", "value": 1.3}, {"measurement": "R (20 mg)", "setting": "OATP1B1 [8]; [11]", "value": 1.1}, {"measurement": "R (20 mg)", "setting": "OATP1B1 [8]; from co-incubation IC50, HBSS", "value": 1.1}, {"measurement": "R (20 mg)", "setting": "OATP1B1 [8]; [13]", "value": 1.1}, {"measurement": "R (20 mg)", "setting": "OATP1B1 [8]; [12]", "value": 1.2}, {"measurement": "R (30 mg)", "setting": "OATP1B1 [8]; [11]", "value": 1.1}, {"measurement": "R (30 mg)", "setting": "OATP1B1 [8]; from co-incubation IC50, HBSS", "value": 1.1}, {"measurement": "R (30 mg)", "setting": "OATP1B1 [8]; [13]", "value": 1.2}, {"measurement": "R (30 mg)", "setting": "OATP1B1 [8]; [12]", "value": 1.3}, {"measurement": "R (40 mg)", "setting": "OATP1B1 [8]; [11]", "value": 1.2}, {"measurement": "R (40 mg)", "setting": "OATP1B1 [8]; from co-incubation IC50, HBSS", "value": 1.1}, {"measurement": "R (40 mg)", "setting": "OATP1B1 [8]; [13]", "value": 1.3}, {"measurement": "R (40 mg)", "setting": "OATP1B1 [8]; [12]", "value": 1.4}, {"measurement": "effect of preincubation on OATP1B3-mediated transport", "setting": "OATP1B3 [9]; 0.5 µM, any treatment condition", "value": "did not significantly affect"}, {"measurement": "effect of preincubation on OATP1B3-mediated transport", "setting": "OATP1B3 [9]; FBS-containing medium, 4 µM for 30 min and 2 or 4 µM for 1 h", "value": "small, yet significant, reductions"}]}, {"compound": "CC[C@H](C)C(=O)O[C@H]1C[C@H](O)C=C2C=C[C@H](C)[C@H](CC[C@@H](O)C[C@@H](O)CC(=O)O)[C@H]21", "note": "[pravastatin]", "values": [{"measurement": "increased AUC, fold of the reference", "setting": "[10]", "value": 1.9, "unit": "fold"}]}]}
